Results published in patent EP0089635A2, “Phospholipid derivatives, process for preparation thereof and pharmaceutical composition of the same” (FUJISAWA PHARMACEUTICAL CO., LTD., priority 1982, dated 1983).

Key:
Type in all cases: in vivo, BALB/c mice
Fibrosarcoma Meth A = assay: Test Method B: survival of mice inoculated intrapleurally with Meth A, injection of test compound into pleural cavity; parameters: dose or concentration left out as unconfirmed; details: for Anti-tumor activity (%) *f: T/C x 100 of mean survival time, into pleural cavity three times; for Mean survival time: female BALB/c mice, Meth A cells intrapleurally, into pleural cavity three times (before 14 days, after 1 hour, after 3 days of tumor implantation)
Method: Groups of eight female BALB/c mice, aged 8-9 weeks and weighing 18.0-22.5 g were used.
Fibrosarcoma Meth A (hereinafter referred to as Meth A) was successively transferred every 7 days into BALB/c mice by intraperitoneal inoculation of the ascites cells thereof and the Meth A in the ascites cells as harvested 6 or 7 days after the inoculation was used as tumor cells.
Each of the BALB/c mice was inoculated intrapleurally with 5 x 10 Meth A cells in 0.1 ml Hanks solution.
Test compound was dissolved in phosphate buffer saline solution, and was injected into pleural cavity to each of the mice in doses of 100 pg/0.05 ml/mouse three times, i.e. before 14 days, after I hour and after 3 days of tumor implantation.
(§1) The control group was given with a vehicle alone in the same way.
The antitumor activity of the test compound was estimated by comparing mean survival time of the two groups. • T : Mean survival time of the medicated group • C : Mean survival time of the control group

Fibrosarcoma Meth-A = assay: Test Method A: antitumor effect on intradermally inoculated Meth-A tumor, intratumoral injection of test compound; details: 100 µg/mouse intratumorally once daily Day 1 to Day 4; for Tumor growth inhibition (%) *b: (1-T/C)x100 of mean tumor diameter on Day 21; for Mean tumor size (mm) *a: female BALB/c mice, 1 x 10^5 Meth-A cells intradermally, mean diameter of tumor on Day 21; for Ratio of tumor free mice *c: groups of six mice
Method: Fibrosarcoma Meth-A (hereinafter referred to as Meth-A) was successively transferred every 7 days into BALB/c mice by intraperitoneal inoculation of the ascites cells thereof and the Meth-A in the ascites cells as harvested 6 days after the inoculation was used as tumor cells.
Each of the BALB/c mice was inoculated intradermally with 1 x 10^5 Meth-A cells in 0.05 ml Hanks solution.
as §1
The antitumor effectiveness of the test compound was estimated by tumor growth inhibition : (1-T/C)x100. • T : Mean diameter of the growing tumor of the medicated group on Day 21. • C : Mean diameter of the growing tumor of the control group on Day 21.

[1] = Test Method A: body weight of the treated mice; details: 100 µg/mouse intratumorally once daily Day 1 to Day 4; for Body weight of mice (g) Day 0 *d: initial day
Method: Groups of six female BALB/c mice, aged 12 weeks and weighing 19 - 21 g were used. Test compound was dissolved in 0.5% methylcellulose saline solution, and was intratumorally injected to each of the mice in doses of 100 µg/mouse once daily from Day 1 to Day 4 postimplant. Body weight was checked on initial day and Day 4.

SMILES | Anti-tumor activity (%) *f (Fibrosarcoma Meth A) | Mean survival time (Fibrosarcoma Meth A) | Tumor growth inhibition (%) *b (Fibrosarcoma Meth-A) | Mean tumor size (mm) *a (Fibrosarcoma Meth-A) | Ratio of tumor free mice *c (Fibrosarcoma Meth-A) | Body weight of mice (g) Day 4 *e [1] | Body weight of mice (g) Day 0 *d [1]
CCCCCCCCCCCCCCCCCCOCC(COP(=O)([O-])OCC[n+]1ccccc1)OC(N)=O (racemic) [Example 3 - (4), (rac)-1-O-0ctadecyl-2-O-carbamoyl-glycerol-3-[2-(1-pyridinio)ethyl]phosphate] | 536% | 37.5 days | – | – | – | – | –
CCCCCCCCCCCCCCCCCCOCC(COP(=O)([O-])OCC[n+]1ccccc1)OC(=O)NC (racemic) [Example 1 - (4), (rac)-1-O-octadecyl-2-O-methylcarbamoyl-glycerol-3-[2-(1-pyridinio)ethyl]-phosphate] | – | – | 100% | 0 mm | 6/6 | 19.1 ± 1.68 g | 18.3 ± 1.11 g
CCCCCCCCCCCCCCCCCCOCC(COP(=O)(O)OCCN1CCN(C)CC1)OC(N)=O (racemic) [Example 4, (rac)-l-O-Octadecyl-2-0-carbamoyl-glycerol-3-[2-(4-methyl-l-piperazinyl)ethyl]phosphate] | 236% | 16.5 days | 100% | 0 mm | 6/6 | 20.2 ± 1.11 g | 19.5 ± 0.60 g
CCCCCCCCCCCCCCCCCCOCC(COP(=O)([O-])OCC[n+]1ccccc1)OC(=O)Nc1ccccc1 (racemic) [Example 2 - (4), (rac)-1-O-Octadecyl-2-O-phenylcarbamoyl-glycerol-3-[2-(l-pyridinio)ethyl]phosphate] | 117% | 7.0 days | – | – | – | – | –
